Measurements reported in ChEMBL document CHEMBL5214923, “Contemporary mTOR inhibitor scaffolds to diseases breakdown: A patent review (2015-2021)” (Eur J Med Chem, 2022).

How the values were obtained:
[1] = Inhibition of mTORC1 in mouse MEF TSC1-/- cells assessed as measuring phosphorylated S6 level incubated for 2 hrs by Hoechst staining based fluorescence assay; assay type: cell-based
mTORC1 [2] = biological target: T1, mTORC1 (Homo sapiens, UniProt P42345+Q8N122+Q9BVC4); test: Inhibition of mTORC1 (unknown origin); assay type: protein-complex assay
mTORC2 [3] = biological target: T2, mTORC2 (Homo sapiens, UniProt P42345+Q6R327+Q9BPZ7+Q9BVC4); test: Inhibition of mTORC2 (unknown origin); assay type: protein-complex assay
mTORC1 [4] = biological target: T1, mTORC1; test: Inhibition of mTORC1 in human MCF7 cells assessed as measuring phosphorylated S6K1 incubated for 2 hrs by AlphaLISA assay; assay type: cell-based
mTORC2 [5] = biological target: T2, mTORC2; test: Inhibition of mTORC2 in human MCF7 cells assessed as measuring phosphorylated AKT incubated for 2 hrs by AlphaLISA assay; assay type: cell-based

T2 sequence (Q6R327 whole entry, other chains not shown): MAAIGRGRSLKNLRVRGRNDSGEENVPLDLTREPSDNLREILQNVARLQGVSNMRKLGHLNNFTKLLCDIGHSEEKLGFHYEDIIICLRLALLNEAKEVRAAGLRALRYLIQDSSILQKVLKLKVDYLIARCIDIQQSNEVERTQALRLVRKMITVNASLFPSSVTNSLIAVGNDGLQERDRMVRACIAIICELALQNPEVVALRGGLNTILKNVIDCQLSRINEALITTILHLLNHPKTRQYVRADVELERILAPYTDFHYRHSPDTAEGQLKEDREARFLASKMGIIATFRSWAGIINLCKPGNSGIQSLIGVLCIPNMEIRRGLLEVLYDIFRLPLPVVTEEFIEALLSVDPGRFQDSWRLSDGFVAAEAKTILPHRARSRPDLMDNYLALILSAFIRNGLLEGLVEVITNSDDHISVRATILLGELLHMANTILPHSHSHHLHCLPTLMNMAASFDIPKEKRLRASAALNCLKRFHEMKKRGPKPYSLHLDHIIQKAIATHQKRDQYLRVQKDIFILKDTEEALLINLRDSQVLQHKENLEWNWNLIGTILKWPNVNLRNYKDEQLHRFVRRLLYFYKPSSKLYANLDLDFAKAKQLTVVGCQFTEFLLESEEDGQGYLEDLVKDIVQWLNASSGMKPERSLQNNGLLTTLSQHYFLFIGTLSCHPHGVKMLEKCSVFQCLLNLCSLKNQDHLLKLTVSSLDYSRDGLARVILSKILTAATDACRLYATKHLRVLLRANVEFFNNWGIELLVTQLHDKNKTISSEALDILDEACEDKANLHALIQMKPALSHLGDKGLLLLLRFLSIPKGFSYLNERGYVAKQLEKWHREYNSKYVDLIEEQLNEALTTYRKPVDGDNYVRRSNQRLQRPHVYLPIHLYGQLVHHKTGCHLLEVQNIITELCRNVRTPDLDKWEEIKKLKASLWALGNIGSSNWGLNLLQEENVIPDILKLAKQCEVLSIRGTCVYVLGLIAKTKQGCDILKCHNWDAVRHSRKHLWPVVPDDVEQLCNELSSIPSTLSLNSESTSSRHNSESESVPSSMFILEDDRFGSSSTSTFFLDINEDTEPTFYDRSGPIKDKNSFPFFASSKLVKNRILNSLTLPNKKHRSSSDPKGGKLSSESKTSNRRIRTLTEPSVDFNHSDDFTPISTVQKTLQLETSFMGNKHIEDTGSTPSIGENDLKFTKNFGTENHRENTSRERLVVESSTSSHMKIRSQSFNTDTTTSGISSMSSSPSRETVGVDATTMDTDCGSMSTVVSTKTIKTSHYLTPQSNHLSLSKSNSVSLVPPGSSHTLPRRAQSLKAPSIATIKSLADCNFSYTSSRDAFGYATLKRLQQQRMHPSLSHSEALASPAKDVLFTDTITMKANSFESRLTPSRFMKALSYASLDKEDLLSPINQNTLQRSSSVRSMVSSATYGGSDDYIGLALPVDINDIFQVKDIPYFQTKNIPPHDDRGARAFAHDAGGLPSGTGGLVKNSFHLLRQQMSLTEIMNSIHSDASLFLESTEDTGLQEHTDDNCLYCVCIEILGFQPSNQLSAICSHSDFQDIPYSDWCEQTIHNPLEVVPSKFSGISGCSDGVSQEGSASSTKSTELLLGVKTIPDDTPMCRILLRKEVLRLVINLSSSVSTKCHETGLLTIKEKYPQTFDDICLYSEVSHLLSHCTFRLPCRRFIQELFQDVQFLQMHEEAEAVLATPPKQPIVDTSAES
T2 sequence (Q9BPZ7 2-522 limits assumed, other chains not shown): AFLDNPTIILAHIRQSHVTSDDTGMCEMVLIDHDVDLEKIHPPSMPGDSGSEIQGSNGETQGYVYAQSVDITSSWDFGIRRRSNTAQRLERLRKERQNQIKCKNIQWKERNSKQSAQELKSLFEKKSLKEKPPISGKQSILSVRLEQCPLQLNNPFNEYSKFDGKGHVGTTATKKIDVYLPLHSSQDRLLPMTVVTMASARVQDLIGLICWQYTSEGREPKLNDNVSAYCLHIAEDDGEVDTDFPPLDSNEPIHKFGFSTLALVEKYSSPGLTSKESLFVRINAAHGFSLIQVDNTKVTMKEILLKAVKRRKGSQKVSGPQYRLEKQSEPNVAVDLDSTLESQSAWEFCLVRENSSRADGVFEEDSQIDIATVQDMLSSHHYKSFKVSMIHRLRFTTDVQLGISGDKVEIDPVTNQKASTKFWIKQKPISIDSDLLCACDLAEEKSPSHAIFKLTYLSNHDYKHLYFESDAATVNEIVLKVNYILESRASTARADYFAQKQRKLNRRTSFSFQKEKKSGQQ
T2 sequence (Q9BVC4 whole entry, other chains not shown): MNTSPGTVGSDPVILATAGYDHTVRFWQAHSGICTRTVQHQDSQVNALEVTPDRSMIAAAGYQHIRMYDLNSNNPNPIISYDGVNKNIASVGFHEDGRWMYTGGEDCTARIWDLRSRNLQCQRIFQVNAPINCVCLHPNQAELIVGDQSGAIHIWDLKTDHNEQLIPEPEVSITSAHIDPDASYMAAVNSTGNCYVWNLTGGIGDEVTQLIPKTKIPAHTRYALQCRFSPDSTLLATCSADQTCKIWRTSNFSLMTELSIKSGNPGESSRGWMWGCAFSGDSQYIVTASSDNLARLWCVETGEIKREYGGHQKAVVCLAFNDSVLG

Compound | IC50 (mTORC1 [2]) [nM] | IC50 (mTORC2 [3]) [nM] | IC50 (mTORC1 [4]) [nM] | IC50 (mTORC2 [5]) [nM] | further results
CO[C@@H]1C[C@H](C[C@@H](C)[C@@H]2CC(=O)[C@H](C)/C=C(\C)[C@@H](O)[C@@H](OC)C(=O)[C@H](C)C[C@H](C)/C=C/C=C/C=C(\C)C(N3CCCS3(=O)=O)C[C@@H]3CC[C@@H](C)[C@@](O)(O3)C(=O)C(=O)N3CCCC[C@H]3C(=O)O2)CC[C@H]1O (some centres not stated) |  |  |  |  | IC50 ([1]; Mus musculus, MEF, 2 h): 1.36 nM
CO[C@@H]1C[C@H](C[C@@H](C)[C@@H]2CC(=O)[C@H](C)/C=C(\C)[C@@H](O)[C@@H](OC)C(=O)[C@H](C)C[C@H](C)/C=C/C=C/C=C(\C)[C@@H](OCCOCCO)C[C@@H]3CC[C@@H](C)[C@@](O)(O3)C(=O)C(=O)N3CCCC[C@H]3C(=O)O2)CC[C@H]1O | < 0.1 | ≥ 100 |  |  | 
CO[C@@H]1C[C@H](C[C@@H](C)[C@@H]2CC(=O)[C@H](C)/C=C(\C)[C@@H](O)[C@@H](OC)C(=O)[C@H](C)C[C@H](C)/C=C/C=C/C=C(\C)C(N3CCS3(=O)=O)C[C@@H]3CC[C@@H](C)[C@@](O)(O3)C(=O)C(=O)N3CCCC[C@H]3C(=O)O2)CC[C@H]1OCCO (some centres not stated) |  |  |  |  | IC50 ([1]; Mus musculus, MEF, 2 h): 0.328 nM
CO[C@@H]1C[C@H](C[C@@H](C)[C@@H]2CC(=O)[C@H](C)/C=C(\C)[C@@H](O)[C@@H](OC)C(=O)[C@H](C)C[C@H](C)/C=C/C=C/C=C(\C)C(N3CCCS3(=O)=O)C[C@@H]3CC[C@@H](C)[C@@](O)(O3)C(=O)C(=O)N3CCCC[C@H]3C(=O)O2)CC[C@H]1OCCO (stereo in doubt; 12) |  |  |  |  | IC50 ([1]; mef): 22.5 nM
Cc1cc(C)c(C(=O)N2CCN(c3ccccc3)C(C(N)=O)C2)c(C)c1NC1CCN(c2ccc(F)cc2C#N)CC1 (configuration not stated) |  |  | 10 | > 10000 | 
CO[C@@H]1C[C@H](C[C@@H](C)[C@@H]2CC(=O)[C@H](C)/C=C(\C)[C@@H](O)[C@@H](OC)C(=O)[C@H](C)C[C@H](C)/C=C/C=C/C=C(\C)[C@@H](OCCOCCOCCOCCOCCOCCOCCOCCO)C[C@@H]3CC[C@@H](C)[C@@](O)(O3)C(=O)C(=O)N3CCCC[C@H]3C(=O)O2)CC[C@H]1O | < 0.1 | ≥ 100 |  |  | 
CO[C@@H]1C[C@H](C[C@@H](C)[C@@H]2CC(=O)[C@H](C)/C=C(\C)[C@@H](O)[C@@H](OC)C(=O)[C@H](C)C[C@H](C)/C=C/C=C/C=C(\C)C(N3CCCS3(=O)=O)C[C@@H]3CC[C@@H](C)[C@@](O)(O3)C(=O)C(=O)N3CCCC[C@H]3C(=O)O2)CC[C@H]1OCCO (stereo in doubt; 13) |  |  |  |  | IC50 ([1]; mef): 8.3 nM
Nc1ncc(-c2nc(N3CCOCC3)nc3c2C[C@H]2COCCN32)cn1 | 594 | 1260 |  |  | 
Cc1cc(C)c(C(=O)N2CCN(c3cncc4cn[nH]c34)CC2)nc1NC1CCN(c2ccccc2C#N)CC1 |  |  | 10 | > 10000 | 
Cc1c(CN2CCN(c3ccccc3C#N)CC2)cc(C(=O)N2CCN(c3oc(C4CC4)nc3C#N)CC2)n1C |  |  | 10 | > 10000 | 
C[C@H]1COCCN1c1nc(-c2cnc(N)nc2C(F)F)nc(N2CCOCC2)n1 | 72 | 35 |  |  | 
CO[C@@H]1C[C@H](C[C@@H](C)[C@@H]2CC(=O)[C@H](C)/C=C(\C)[C@@H](O)[C@@H](OC)C(=O)[C@H](C)C[C@H](C)/C=C/C=C/C=C(\C)[C@@H](OCC3COCCOCCOCCO3)C[C@@H]3CC[C@@H](C)[C@@](O)(O3)C(=O)C(=O)N3CCCC[C@H]3C(=O)O2)CC[C@H]1O (some centres not stated) | < 0.1 | ≥ 100 |  |  | 
Nc1ncc(-c2nc(N3CCOCC3)nc3c2C[C@@H]2COCCN32)cn1 | 574 | 575 |  |  | 
Cc1cc(C)c(C(=O)N2CCN(c3ncccc3F)[C@H](CO)C2)cc1NC1CCN(c2ccccc2C#N)CC1 |  |  | 10 | > 10000 | 
Cc1cc(C)c(C(=O)N2CCN(c3cccc(F)c3[S@](C)(=N)=O)CC2)cc1NC1CCN(c2ccccc2C#N)CC1 |  |  | 10 | > 10000 | 
Cc1cc(C)c(C(=O)N2CCN(c3cccnc3S(N)(=O)=O)CC2)c(C)c1NC1CCN(c2ccccc2C#N)CC1 |  |  | 10 | > 10000 | 
CO[C@@H]1C[C@H](C[C@@H](C)[C@@H]2CC(=O)[C@H](C)/C=C(\C)[C@@H](O)[C@@H](OC)C(=O)[C@H](C)C[C@H](C)/C=C/C=C/C=C(\C)[C@@H](OCCSCCSCCO)C[C@@H]3CC[C@@H](C)[C@@](O)(O3)C(=O)C(=O)N3CCCC[C@H]3C(=O)O2)CC[C@H]1O | < 0.1 | ≥ 100 |  |  | 
Cc1cc(C)c(C(=O)N2CCN(c3ccc(F)cn3)[C@H](CO)C2)c(C)c1NC1CCN(c2cccnn2)CC1 |  |  | 10 | > 10000 | 
CO[C@@H]1C[C@H](C[C@@H](C)[C@@H]2CC(=O)[C@H](C)/C=C(\C)[C@@H](O)[C@@H](OC)C(=O)[C@H](C)C[C@H](C)/C=C/C=C/C=C(\C)C(N3CCCCS3(=O)=O)C[C@@H]3CC[C@@H](C)[C@@](O)(O3)C(=O)C(=O)N3CCCC[C@H]3C(=O)O2)CC[C@H]1O (some centres not stated) |  |  |  |  | IC50 ([1]; Mus musculus, MEF, 2 h): 3.4 nM

Compound | IC50 (mTORC1 [2]) [nM] | IC50 (mTORC2 [3]) [nM] | IC50 (mTORC1 [4]) [nM] | IC50 (mTORC2 [5]) [nM] | further results
CO[C@@H]1C[C@H](C[C@@H](C)[C@@H]2CC(=O)[C@H](C)/C=C(\C)[C@@H](O)[C@@H](OC)C(=O)[C@H](C)C[C@H](C)/C=C/C=C/C=C(\C)C(N3CCS3(=O)=O)C[C@@H]3CC[C@@H](C)[C@@](O)(O3)C(=O)C(=O)N3CCCC[C@H]3C(=O)O2)CC[C@H]1O (some centres not stated) |  |  |  |  | IC50 ([1]; Mus musculus, MEF, 2 h): 0.17 nM
CNC(=O)c1cc(F)ccc1N1CCN(C(=O)c2cc(NC3CCN(c4ccccc4C#N)CC3)c(C)cc2C)CC1 |  |  | 10 | > 10000 | 
CO[C@@H]1C[C@H](C[C@@H](C)[C@@H]2CC(=O)[C@H](C)/C=C(\C)[C@@H](O)[C@@H](OC)C(=O)[C@H](C)C[C@H](C)/C=C/C=C/C=C(\C)C(N3CCS3(=O)=O)C[C@@H]3CC[C@@H](C)[C@@](O)(O3)C(=O)C(=O)N3CCCC[C@H]3C(=O)O2)CC[C@@H]1n1cnnn1 (some centres not stated) |  |  |  |  | IC50 ([1]; Mus musculus, MEF, 2 h): 0.374 nM
Cc1c(CN2C3CCC2CN(c2ccccc2C#N)C3)cc(C(=O)N2CCN(c3ccccn3)CC2)n1C |  |  | 10 | > 10000 | 
CO[C@@H]1C[C@H](C[C@@H](C)[C@@H]2CC(=O)[C@H](C)/C=C(\C)[C@@H](O)[C@@H](OC)C(=O)[C@H](C)C[C@H](C)/C=C/C=C/C=C(\C)[C@H](N3CCCS3(=O)=O)C[C@@H]3CC[C@@H](C)[C@@](O)(O3)C(=O)C(=O)N3CCCC[C@H]3C(=O)O2)CC[C@H]1O |  |  |  |  | IC50 ([1]; Mus musculus, MEF, 2 h): 0.274 nM
C[C@H]1COCCN1c1nc(-c2cnc(N)cc2C(F)F)nc(N2CCOCC2)n1 | 68 | 74 |  |  | 
Cn1c(C(=O)N2CCN(c3ccccc3)CC2)cc(CN2CCN(c3ccccc3C#N)CC2)c1C#N |  |  | 10 | > 10000 | 
Cc1c(CN2CCN(c3ccccc3Cl)CC2)cc(C(=O)N2CCN(c3cccc(F)c3C#N)C[C@@H]2C)n1C |  |  | 10 | > 10000 | 
Cn1c(C(=O)N2CCN(c3ccccc3)CC2)cc(CN2CCN(c3ccccc3Cl)CC2)c1C#N |  |  | 10 | > 10000 | 
Nc1ncc(-c2nc(N3C4CCC3COC4)nc(N3C4COCC3COC4)n2)c(C(F)F)n1 | 79 | 219 |  |  | 
Nc1ncc(-c2nc(N3CCOCC3)c3c(n2)N2CCOC[C@H]2C3)cn1 | 65 | 145 |  |  | 
Nc1ncc(-c2nc(N3CCOCC3)c3c(n2)N2CCOC[C@@H]2C3)cn1 | 98 | 154 |  |  | 
Cc1c(CN2CCN(c3ncccc3Cl)CC2)cc(C(=O)N2CCN(c3cc(F)c(F)cc3C#N)CC2)n1C |  |  | 10 | > 10000 | 
CO[C@@H]1C[C@H](C[C@@H](C)[C@@H]2CC(=O)[C@H](C)/C=C(\C)[C@@H](O)[C@@H](OC)C(=O)[C@H](C)C[C@H](C)/C=C/C=C/C=C(\C)[C@@H](OCCOCCOCCO)C[C@@H]3CC[C@@H](C)[C@@](O)(O3)C(=O)C(=O)N3CCCC[C@H]3C(=O)O2)CC[C@H]1O | < 0.1 | ≥ 100 |  |  | 
CC1(C)COCCN1c1nc(-c2cnc(N)cc2C(F)F)nc(N2CCOCC2(C)C)n1 | 47 | 106 |  |  | 
Cc1cc(C)c(C(=O)N2CCN(c3ncccc3S(N)(=O)=O)CC2)nc1NC1CCN(c2ccccc2C#N)CC1 |  |  | 10 | > 10000 | 
CC1(C)COCCN1c1nc(-c2cnc(N)cc2C(F)F)nc(N2CCOCC2)n1 | 45 | 54 |  |  | 
Cc1cc(C)c(C(=O)N2CCN(c3ccccn3)[C@H](CO)C2)cc1NC1CCN(c2ccccc2OC(F)F)CC1 |  |  | 10 | > 10000 | 
CO[C@H]1C[C@@H]2CC[C@@H](C)[C@@](O)(O2)C(=O)C(=O)N2CCCC[C@H]2C(=O)O[C@H]([C@H](C)C[C@@H]2CC[C@@H](OCCO)[C@H](OC)C2)CC(=O)[C@H](C)/C=C(\C)[C@@H](O)[C@@H](OC)C(=O)[C@H](C)C[C@H](C)/C=C/C=C/C=C/1C [EVEROLIMUS] | 0.05 |  |  |  | 
